According to publication PMC7961786, “Magic Peptide: Unique Properties of the LRR11 Peptide in the Activation of Leukotriene Synthesis in Human Neutrophils” (International Journal of Molecular Sciences, 2021):
Entries after “also recorded” stand apart in the source; their conditions may differ.

System: human neutrophils (PMNLs), 5-LOX product synthesis
Assay: 5-LOX metabolite synthesis in human neutrophils stimulated with opsonized S. typhimurium (HPLC)
Type: cell-based

Row | Substance | effect on 5-LOX activity / leukotriene synthesis (ODN alone, 1 µM, 20 min, then opsonized S. typhimurium 15 min, Figure 1, five independent experiments in duplicate) | Σ 5-LOX metabolites (Table S1, 2×10^7 PMNLs, 15 min at 37 °C without or with 5 µM Chloroquine, then ODN, after 20 min 0.5×10^9 opsonized S. typhimurium for 15 min, mean ± SEM, three independent experiments) [ng/107 PMNLs] | effect of LRR11 on 5-LOX product synthesis in combination with ODN or LPS (1 µM LRR11 added simultaneously with 1 µM ODN or LPS, then opsonized S. typhimurium, Figure 1) | effect of LRR11 on FPS-ZM1 action on leukotriene synthesis (1 µM LRR11 with ODN after 0.15 µM FPS-ZM1, Figure 3) | LTB4 accumulation, dependence on way of LRR11 addition ((1) LRR11 15 min before ODN, (2) simultaneously but independently, (3) 1-h pre-mixed)
1 | 5′-tcgtcgttttcggcgcgcgccg-3′ (DNA TCGTCGTTTTCGGCGCGCGCCG; chemistry not fully specified) [C-CpG] | increased leukotriene synthesis | 42.1 ± 4.2 |  |  | 
2 | QLRKLNLSFNYQKRVSFAHLSLAPSFGSLV [LRR11, 30 amino acid peptide from leucine-rich repeat of TLR9] |  |  | does not significantly change the effects of G-rich ODN and lipopolysaccharides (LPS), but obviously enhances the effects of CpG-ODNs; also recorded: stimulated the formation of the 5-LOX products; also recorded: synergistically amplifying each other’s effects | its action is nullified in the presence of LRR11 peptide; also recorded: LRR11 abolished the effects of FPS-ZM1 and restored the level of leukotriene synthesis | only pathways (2) and (3) provide a significant effect on LTB4 accumulation
